For one data set, the system named is Vibrio anguillarum NP-1. Put plainly: Minimal Inhibitory Concentration (MIC), antibacterial activity against fish-disease strain. It is filed as cell-based. Particulars: NP1, 2.5% sodium chloride added Heart Infusion Agar, 20 hours incubation at 25°C. The procedure: MICs againstvibrio anguillarum originated in fish diseases were obtained by the following method. An overnight culture broth of each strain was diluted 10-fold (approximately 10^6 cells/ml) and was stamped on 2.5% sodium chloride added Heart Infusion Agar containing graded concentrations of the test compounds, and MICs were expressed in terms of pg/ml after 20 hours incubation at 25°C.

Another data set can be described thus: Acute toxicity in mice. The data set is classed as in vivo. The note with it: 100 mg/kg injected into lateral vein, ICR-strain male mouse, 5 mice, observed for 7 days. The procedure:
The test compound (16 mg) was dissolved in 1N NaOH (0.1 ml) and steril distilled water (3.9 ml).

Data set [1] has as its system Mycoplasma pulmonis PG-22. Put plainly: Minimal Inhibitory Concentration (MIC), antimycoplasmal activity, agar dilution method. It is filed as cell-based. Particulars: PG22, 37°C for 3 to 4 days, 5 per cent carbon dioxide, lowest concentration completely inhibiting colony growth. On the procedure:
MICs of test compound were obtained by the agar dilution method.
Agar plates contained two-fold decremental dilutions of the test compound, ranging from 0.05 to 100 pg/ml. The inoculum (0.01 ml, containing approximately 10^5 CFU/ml of liquid medium which had been cultured at 37°C for 3 days) was plated on moisture-free media surfaces. Plates were placed in a humidified atmosphere of 5 per cent carbon dioxide and 95 per cent air, and incubated at 37°C for 3 to 4 days. The colonies grown on the plate were observed under a low microscopic magnification (x60).

SMILES strings stand for the structures. In brackets after ≈: the same amount, converted by molar mass.

For `O=C(O)c1cn(C2CC2)c2c(F)c(N3CCNCC3)c(F)c(F)c2c1=O` [compound (I-d), 1-Cyclopropyl-5,6,8-trifluoro-7-(1-piperazinyl)-4-quinolone-3-carboxylic acid], the MIC (in the data set with Vibrio anguillarum NP-1; in data set [1]) was 0.1 µg/mL (≈ 0.272 µM) each time. Further, the “Survivals / test mice” value in the data set “Acute toxicity in mice” was 5 / 5.

As usually defined, the MIC is the least concentration at which growth counts as inhibited. Read a high MIC as a less susceptible organism.
